# Results reported in patent EP4810052A2, “HCRHR2 SELECTIVE POLYPEPTIDES” (Gubra A/S, priority 2023, dated 2026).
# Like-named read-outs stand apart in the source and are kept apart here. Starred links: 1 amine or outer side, 2 acyl side, 3 side chain; linkers in the order of their positions; H or OH if unused. Non-standard residues stand in square brackets, D forms with d. Residues, ends and D or L forms follow the SMILES beside them. Groups on a side chain read outwards from the residue. *: point of attachment. C20 diacid = O=C(O)CCCCCCCCCCCCCCCCCCC(=O)*; γGlu = O=C(O)[C@H](CCC(=O)[*:2])N[*:1]; Hyp = O=C(O)[C@@H]1C[C@@H](O)CN1; NMeI = CC[C@H](C)[C@H](NC)C(=O)O; Nle = CCCC[C@H](N)C(=O)O; AEEA = NCCOCCOCC(=O)O; Aib = CC(C)(N)C(=O)O
# Tests used:
# [1] = target: T1, hCRHR2 (Homo sapiens, UniProt Q13324); test: HTRF cAMP assay, determination of hCRHR2 potency (peptide libraries 5 conc., purified peptides 11 conc.); format: cell-based
# T1 sequence (Q13324 1-411): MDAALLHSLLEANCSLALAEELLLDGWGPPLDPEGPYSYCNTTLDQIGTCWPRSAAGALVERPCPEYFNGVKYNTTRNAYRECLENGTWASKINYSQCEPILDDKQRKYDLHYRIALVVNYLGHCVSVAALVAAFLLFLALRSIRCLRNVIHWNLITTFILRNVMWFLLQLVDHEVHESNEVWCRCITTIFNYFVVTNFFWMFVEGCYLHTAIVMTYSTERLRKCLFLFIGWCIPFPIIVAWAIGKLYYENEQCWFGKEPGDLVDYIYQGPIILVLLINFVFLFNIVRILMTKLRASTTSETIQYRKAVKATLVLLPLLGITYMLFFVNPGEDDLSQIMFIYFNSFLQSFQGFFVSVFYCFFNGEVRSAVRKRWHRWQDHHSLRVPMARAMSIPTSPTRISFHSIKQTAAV
# Excerpt: HTRF (CisBio) cAMP assay: The assay technology has thoroughly been described in the CisBio HTRF cAMP assay Kit manual (# 62AM4PEC). Briefly, time resolved fluorescence technic was applied to measure cAMP. This technic is based on a competitive immunoassay using cryptate-labelled anti-cAMP antibody and d2-labeled cAMP. In the absence of cellular cAMP, the anti-cAMP cryptate conjugate may get into proximity to cAMP-d2 conjugate and energy (FRET) can be transferred from cryptate to d2.
# CHO-K1 cells stably expressing the human corticotropin-releasing hormone receptor 2 (Eurofins/DiscoverX, Cat #95-0048C2 hCRHR2 stable monoclonal cell lines) were used as cells in suspension, brought to life from frozen cell stocks immediately before assay performance.
# Concentration-response evaluation of compounds was performed with 5 concentrations of agonist peptides and EC50 values were calculated by nonlinear regression using sigmoid concentration-response with variable slope.
# Concentration-response evaluation of compounds was performed with 11 concentrations of agonist peptides and EC50 values were calculated by nonlinear regression using sigmoid concentration-response with variable slope.
# [2] = target: T2, hCRHR1 (Homo sapiens, UniProt P34998); test: HTRF cAMP assay, determination of hCRHR1 potency (peptide libraries 5 conc., purified peptides 11 conc.); format: cell-based
# T2 sequence (P34998 24-415): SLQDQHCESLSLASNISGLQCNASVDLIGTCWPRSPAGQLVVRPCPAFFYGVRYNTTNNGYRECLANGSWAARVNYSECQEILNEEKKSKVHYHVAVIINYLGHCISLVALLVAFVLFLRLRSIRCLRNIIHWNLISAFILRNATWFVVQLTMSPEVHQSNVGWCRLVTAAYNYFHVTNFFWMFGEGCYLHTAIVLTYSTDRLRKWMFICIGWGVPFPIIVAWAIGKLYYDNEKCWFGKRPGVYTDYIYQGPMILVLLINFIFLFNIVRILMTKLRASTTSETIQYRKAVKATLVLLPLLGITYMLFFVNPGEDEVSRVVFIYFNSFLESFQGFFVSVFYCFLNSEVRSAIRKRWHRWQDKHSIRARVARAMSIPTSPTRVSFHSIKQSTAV
# Excerpt: HTRF (CisBio) cAMP assay: The assay technology has thoroughly been described in the CisBio HTRF cAMP assay Kit manual (# 62AM4PEC). Briefly, time resolved fluorescence technic was applied to measure cAMP. This technic is based on a competitive immunoassay using cryptate-labelled anti-cAMP antibody and d2-labeled cAMP. In the absence of cellular cAMP, the anti-cAMP cryptate conjugate may get into proximity to cAMP-d2 conjugate and energy (FRET) can be transferred from cryptate to d2. CHO-K1 cells stably expressing the human corticotropin-releasing hormone receptor 1 (Eurofins/DiscoverX Cat #95-0047C2 hCRHR1 stable monoclonal cell lines) were used as cells in suspension, brought to life from frozen cell stocks immediately before assay performance. […] Concentration-response evaluation of compounds was performed with 5 concentrations of agonist peptides and EC50 values were calculated by nonlinear regression using sigmoid concentration-response with variable slope. Concentration-response evaluation of compounds was performed with 11 concentrations of agonist peptides and EC50 values were calculated by nonlinear regression using sigmoid concentration-response with variable slope.
# [3] = Table 3, matched molecular pairs X^38 L vs Nle, peptide library of Example 4, read-out: hCRHR2 pEC50 (converted)
# [4] = Table 3, matched molecular pairs X^38 L vs Nle, peptide library of Example 4, read-out: hCRHR1 pEC50 (converted)
"EC50 [1, 3]","EC50 [2, 4]",further results,Compound
0.501 nM,794 nM,–,CC[C@H](C)[C@H](N)C(=O)N[C@H](C(=O)N[C@@H](CC(C)C)C(=O)N[C@@H](CO)C(=O)N[C@@H](CC(C)C)C(=O)N[C@@H](CC(=O)O)C(=O)N[C@H](C(=O)N1CCC[C@H]1C(=O)N[C@H](C(=O)NCC(=O)N[C@@H](CC(C)C)C(=O)N[C@@H](CC(C)C)C(=O)N[C@@H](CCC(N)=O)C(=O)N[C@H](C(=O)N[C@@H](CC(C)C)C(=O)N[C@@H](CC(C)C)C(=O)N[C@@H](CCC(=O)O)C(=O)N[C@@H](CCC(N)=O)C(=O)N[C@@H](C)C(=O)N[C@@H](CCCNC(=N)N)C(=O)N[C@@H](C)C(=O)N[C@@H](CCCNC(=N)N)C(=O)N[C@@H](C)C(=O)N[C@@H](CC(C)C)C(=O)N[C@@H](CCCNC(=N)N)C(=O)N[C@@H](CCC(=O)O)C(=O)N[C@@H](CCC(N)=O)C(=O)N[C@@H](C)C(=O)N[C@@H](CCCCNC(=O)COCCOCCNC(=O)COCCOCCNC(=O)CC[C@H](NC(=O)CC[C@H](NC(=O)CCCCCCCCCCCCCCCCCCC(=O)O)C(=O)O)C(=O)O)C(=O)N[C@H](C(=O)N[C@@H](CC(N)=O)C(=O)N[C@@H](C)C(=O)N[C@@H](CCC(=O)O)C(=O)N[C@H](C(=O)N[C@@H](CC(C)C)C(=O)N[C@@H](C)C(=O)N[C@@H](CCC(=O)O)C(=O)N[C@H](C(N)=O)C(C)C)[C@@H](C)CC)[C@@H](C)O)[C@@H](C)CC)[C@@H](C)CC)C(C)C)C(C)C [SEQ ID NO: 39] (H-IVLSLDVPIGLLQILLEQARARALREQAK([AEEA-AEEA-γGlu-γGlu-C20 diacid])TNAEILAEV-NH2)
–,–,"EC50 ([1]; Table 4, library peptides having X^38 = Nle, read-out: hCRHR2 pEC50 (converted)): 0.0398 nM; EC50 ([2]; Table 4, library peptides having X^38 = Nle, read-out: hCRHR1 pEC50 (converted)): 1000 nM",CCCC[C@H](NC(=O)[C@@H](NC(=O)[C@H](CCC(=O)O)NC(=O)C(C)(C)NC(=O)[C@H](CC(N)=O)NC(=O)[C@@H](NC(=O)[C@H](CCCCNC(=O)COCCOCCNC(=O)COCCOCCNC(=O)CC[C@H](NC(=O)CC[C@H](NC(=O)CCCCCCCCCCCCCCCCCCC(=O)O)C(=O)O)C(=O)O)NC(=O)[C@H](C)NC(=O)[C@H](CCC(N)=O)NC(=O)[C@H](CCC(=O)O)NC(=O)[C@H](CCCNC(=N)N)NC(=O)[C@H](C)NC(=O)[C@H](C)NC(=O)[C@H](CCCNC(=N)N)NC(=O)[C@H](C)NC(=O)[C@H](CCCNC(=N)N)NC(=O)[C@H](C)NC(=O)[C@H](CCC(N)=O)NC(=O)[C@H](Cc1c[nH]cn1)NC(=O)[C@H](CC(C)C)NC(=O)[C@H](CC(C)C)NC(=O)[C@@H](NC(=O)[C@H](CCC(N)=O)NC(=O)[C@H](CC(C)C)NC(=O)[C@H](CC(C)C)NC(=O)CNC(=O)[C@@H](NC(=O)[C@@H]1CCCN1C(=O)[C@@H](NC(=O)[C@H](CC(=O)O)NC(=O)[C@H](CC(C)C)NC(=O)[C@H](CO)NC(=O)[C@H](CC(C)C)NC(=O)[C@@H](NC(=O)[C@@H](NC)[C@@H](C)CC)C(C)C)C(C)C)[C@@H](C)CC)[C@@H](C)CC)[C@@H](C)O)[C@@H](C)CC)C(=O)N[C@@H](C)C(=O)N[C@@H](CCC(=O)O)C(=O)N[C@H](C(N)=O)C(C)C [compound 207] (H-[NMeI]VLSLDVPIGLLQILLHQARARAAREQAK([AEEA-AEEA-γGlu-γGlu-C20 diacid])TN[Aib]EI[Nle]AEV-NH2)
–,–,"EC50 ([1]; library peptides, matched molecular pairs L vs Nle in position X^38, read-out: Potency hCRHR2 pEC50 (converted)): 0.251 nM; EC50 ([2]; library peptides, matched molecular pairs L vs Nle in position X^38, read-out: Potency hCRHR1 pEC50 (converted)): 2 nM",CCCC[C@H](NC(=O)[C@@H](NC(=O)[C@H](CCC(=O)O)NC(=O)[C@H](C)NC(=O)[C@H](CC(N)=O)NC(=O)[C@@H](NC(=O)[C@H](CCCCNC(=O)COCCOCCNC(=O)COCCOCCNC(=O)CC[C@H](NC(=O)CC[C@H](NC(=O)CCCCCCCCCCCCCCCCCCC(=O)O)C(=O)O)C(=O)O)NC(=O)[C@H](C)NC(=O)[C@H](CCC(N)=O)NC(=O)[C@H](CCC(=O)O)NC(=O)[C@H](CCCNC(=N)N)NC(=O)[C@H](C)NC(=O)[C@@H](NC(=O)[C@H](CCCNC(=N)N)NC(=O)[C@H](C)NC(=O)[C@H](CCCNC(=N)N)NC(=O)[C@H](C)NC(=O)[C@H](CCC(N)=O)NC(=O)[C@H](CCC(=O)O)NC(=O)[C@H](CC(C)C)NC(=O)[C@H](CC(C)C)NC(=O)[C@@H](NC(=O)[C@H](CCC(N)=O)NC(=O)[C@H](CC(C)C)NC(=O)[C@H](CC(C)C)NC(=O)CNC(=O)[C@@H](NC(=O)[C@@H]1C[C@@H](O)CN1C(=O)[C@@H](NC(=O)[C@H](CC(=O)O)NC(=O)[C@H](CC(C)C)NC(=O)[C@H](CO)NC(=O)[C@H](CC(C)C)NC(=O)[C@@H](NC(=O)[C@@H](N)[C@@H](C)CC)C(C)C)C(C)C)[C@@H](C)CC)[C@@H](C)CC)C(C)C)[C@@H](C)O)[C@@H](C)CC)C(=O)N[C@@H](C)C(=O)N[C@@H](CCC(=O)O)C(=O)N[C@H](C(N)=O)C(C)C [compound 85] (H-IVLSLDV[Hyp]IGLLQILLEQARARVAREQAK([AEEA-AEEA-γGlu-γGlu-C20 diacid])TNAEI[Nle]AEV-NH2)
1.26 nM,126000 nM,–,CC[C@H](C)[C@H](N)C(=O)N[C@H](C(=O)N[C@@H](CC(C)C)C(=O)N[C@@H](CO)C(=O)N[C@@H](CC(C)C)C(=O)N[C@@H](CC(=O)O)C(=O)N[C@H](C(=O)N1CCC[C@H]1C(=O)N[C@H](C(=O)NCC(=O)N[C@@H](CC(C)C)C(=O)N[C@@H](CC(C)C)C(=O)N[C@@H](CCC(N)=O)C(=O)N[C@H](C(=O)N[C@@H](CC(C)C)C(=O)N[C@@H](CC(C)C)C(=O)N[C@@H](CCC(=O)O)C(=O)N[C@@H](CCC(N)=O)C(=O)N[C@@H](C)C(=O)N[C@@H](CCCNC(=N)N)C(=O)N[C@@H](C)C(=O)N[C@@H](CCCNC(=N)N)C(=O)N[C@@H](C)C(=O)N[C@@H](CCC(N)=O)C(=O)N[C@@H](CCCNC(=N)N)C(=O)N[C@@H](CCC(=O)O)C(=O)N[C@@H](CCC(=O)O)C(=O)N[C@@H](C)C(=O)N[C@@H](CCCCNC(=O)COCCOCCNC(=O)COCCOCCNC(=O)CC[C@H](NC(=O)CC[C@H](NC(=O)CCCCCCCCCCCCCCCCCCC(=O)O)C(=O)O)C(=O)O)C(=O)N[C@H](C(=O)N[C@@H](CC(N)=O)C(=O)N[C@@H](C)C(=O)N[C@@H](CCC(=O)O)C(=O)N[C@H](C(=O)N[C@@H](CC(C)C)C(=O)N[C@@H](C)C(=O)N[C@@H](CCC(=O)O)C(=O)N[C@H](C(N)=O)C(C)C)[C@@H](C)CC)[C@@H](C)O)[C@@H](C)CC)[C@@H](C)CC)C(C)C)C(C)C [SEQ ID NO: 33] (H-IVLSLDVPIGLLQILLEQARARAQREEAK([AEEA-AEEA-γGlu-γGlu-C20 diacid])TNAEILAEV-NH2)
